Values of other authors in US20080003219A1, “DELIVERY OF AN OCULAR AGENT” (MINU, L.L.C., priority 2005, published 2008).

Tests used:
[1] = tested on: neovascular age-related macular degeneration; settings: 1 mg single intravitreal injection
[2] = tested on: chronic myeloid leukemia (CML); settings: CML patients who initially respond
[3] = tested on: choroidal neovascularization; settings: intravitreal injection in combination with verteporfin PDT, compared with PDT only

bevacizumab
observed inflammation [1]: no observed inflammation | subretinal fluid ([1]; after one week): resolution of subretinal fluid after one week | macular appearance ([1]; duration of improvement): improved macular appearance maintained for at least four weeks

Cc1ccc(NC(=O)c2ccc(CN3CCN(C)CC3)cc2)cc1Nc1nccc(-c2cccnc2)n1 [imatinib]
initially responding CML patients who subsequently develop drug resistance [2]: about 10%

B1: ranibizumab (antibody, chains of the INN, looked up, V domains shown)
VH: EVQLVESGGGLVQPGGSLRLSCAASGYDFTHYGMNWVRQAPGKGLEWVGWINTYTGEPTYAADFKRRFTFSLDTSKSTAYLQMNSLRAEDTAVYYCAKYPYYYGTSHWYFDVWGQGTLVTVSS
VL: DIQLTQSPSSLSASVGDRVTITCSASQDISNYLNWYQQKPGKAPKVLIYFTSSLHSGVPSRFSGSGSGTDFTLTISSLQPEDFATYYCQQYSTVPWTFGQGTKVEIK
modifications: Fab
reduction in angiographic leakage [3]: greater reduction in angiographic leakage than PDT only
